Experimental data as given in PMC10247784, “Physiological activation of human and mouse bitter taste receptors by bile acids” (Communications Biology, 2023).
“Also recorded” adds a separate entry of the source.

Test system: mouse Tas2rs
Assay: Calcium imaging screening of 34 mouse bitter taste receptors
Assay type: cell-based
Details: screening of 34 mouse receptors; listed as CDCA
Experimental: This set of bile acids was chosen because of their commercial availability in high purities, their diversity within the class of bile acids and their previous detection and quantitation in human blood. Stock solutions were prepared in DMSO. […] Maximal applied concentrations are due to solubility problems or receptor-independent artefacts during measurement at high bile acid concentrations (Table 1, Table 2)[12],[58]. […]
Cells were loaded using the calcium-sensitive fluorescent dye Fluo-4-AM (Abcam, Cambridge, Great Britain) in the presence of 2.5 mM probenecid (Sigma-Aldrich, Steinheim, Germany) the day after transfection[13],[41]. […] For automated agonist application and measurement of fluorescence changes, a FLIPR^TETRA device (Molecular Devices, San José, United States) was used. […]
Measured data were negative control corrected by subtracting the signal of the mock-transfected cells and exported to Microsoft Excel using the FLIPR software ScreenWorks 4.2. In Microsoft Excel software, standardization of maximum fluorescence intensities to the basal fluorescence and normalization to the buffer-only control was done to calculate the relative fluorescence changes (ΔF/F). […]

SMILES: C[C@H](CCC(=O)O)[C@H]1CC[C@H]2[C@@H]3[C@H](O)C[C@@H]4C[C@H](O)CC[C@]4(C)[C@H]3CC[C@]12C [Chenodeoxycholic Acid, chenodeoxycholic acid]
- Response of mouse Tas2rs: did not activate any; also recorded: did not obtain any response
